{
  "source": "patent US20240099298A1",
  "about": "“BIOINSECTICIDAL COMPOSITIONS CONTAINING MONOTERPENES AND METHODS OF USE THEREOF” (priority 2017, published 2024)",
  "key": {"[1]": {"conditions": "T 25 °C; cited from earlier work"}, "adult T. palmi": {"tested_on": "adult T. palmi", "conditions": "cited from earlier work"}, "[2]": {"target": "T1, recombinant gamma-aminobutyric acid receptor-associated protein (rGABARAP) (Frankliniella occidentalis, UniProt A0A6J1T1Q2)", "T1 sequence (A0A6J1T1Q2 1-118)": "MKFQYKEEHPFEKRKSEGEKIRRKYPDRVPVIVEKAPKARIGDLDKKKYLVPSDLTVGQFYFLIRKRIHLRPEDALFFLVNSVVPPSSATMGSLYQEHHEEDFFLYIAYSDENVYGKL", "assay": "Isothermal titration calorimetry (ITC) binding to rGABARAP", "conditions": "25° C., pH 7.4", "method": "(§1) Preparation of recombinant GABARAP (rGABARAP) protein. RNA was extracted from F. occidentalis and cDNA was then synthesized. GABARAP (GenBank accession No. LOC113211372) was obtained after PCR amplification (Stafford-Banks, et al. (2014) Plos One 9:e94447).\n(§2) The isothermal titration thermal binding measurements were performed with an ITC-200 calorimeter (GE Healthcare, Boston, MA) at 25° C. in a buffer containing 50 mM Tris-HCl and 100 mM NaCl (pH 7.4). […] The MicroCal Origin 7.0 software system was used for data processing. The first run was a pre-run and was excluded from the final data. The amount of protein in the sample pool was constant. […] The experimental bimolecular interaction data from the 18 drops were used to calculate the dissociation constant. The dissociation constant […] was calculated as 1/K (Li, et al. (2018) RSC Advances 8:18952-18958)."}, "[3]": {"target": "T1, recombinant gamma-aminobutyric acid receptor-associated protein (rGABARAP)", "assay": "Microscale thermophoresis (MST) binding to rGABARAP", "conditions": "rGABARAP; read-out: Kd value, MST", "text": "as §1\n(§3) Interaction between ME and rGABARAP. A Nano Temper Monolith NT.115 MST system (Nano Temper, Munich, Germany) was used to assess the binding affinities between the target compounds and rGABARAP according to the published procedures (Zan, et al. (2020) Journal of Agricultural and Food Chemistry 68:6280-6285). Spinosyn A was used as a chemical positive control. Spinosyn A (≥1 nM) can trigger a change of the Cl^− current of insect neuron GABAAR, which is considered to be an insecticidal action mechanism of spinosyn A (Watson (2001) Pesticide Biochemistry and Physiology 71:20-28). Ovalbumin (OVA) (Sangon Biotech, Shanghai, China) is a control protein consisting of 385 amino acid residues. The interaction between OVA and ME was used as a protein control experiment (Huntington, et al. (1995) Protein Science 4:613-621)."}, "rGABARAP^Y174A [4]": {"target": "T2, rGABARAP^Y174A (Frankliniella occidentalis, UniProt A0A6J1T1Q2)", "T2 sequence (A0A6J1T1Q2 entry or part of it, stated change not applied)": "as the sequence (A0A6J1T1Q2 1-118) above", "assay": "ITC binding to rGABARAP mutant", "method": "as §2\n(§4) Preparation of rGABARAP Mutant and Interaction Between ME and rGABARAP Mutant. […] DNAman was used to convert the nucleic acid sequence into an amino acid sequence and find the Y174 site. Y174 was mutated to A174. The rGABARAP mutant gene loaded into the pMCSG19 vector and the His tags at both ends of the sequence were retained to construct a prokaryotic expression plasmid. The carrier contained a maltose binding protein (MBP) tag that was not cut for verification. However, MBP and ME were used as treatment controls. The mutant plasmid was constructed in Sangon Biotech (Shanghai, China). The protein expression, purification, and desalting procedures of rGABARAP^Y174A mutant and rGABARAP were the same. Subsequently, the binding kinetics of ME and rGABARAP^Y174A were tested by MST and ITC."}, "rGABARAP^Y174A [5]": {"target": "T2, rGABARAP^Y174A", "assay": "MST binding to rGABARAP mutant", "method": "as §3, §4"}, "[6]": {"tested_on": "Drosophila melanogaster (fruit fly)", "assay": "Median lethal concentration fumigation test, fruit fly", "assay_type": "in vivo", "conditions": "mortality after 280 minutes"}, "[7]": {"tested_on": "B. cucuribitae (melon fly)", "assay": "Median lethal time (LT50) test, melon fly", "assay_type": "in vivo, Bactrocera cucuribitae", "text": "(§5) All treatments and controls were in triplicate.\n(§6) Toxicity of Monoterpenes as Fumigants. […] Therefore, to determine how fast the monoterpenes act as fumigants, it was necessary to determine their LT50 values for the target organisms."}, "[8]": {"tested_on": "Megalurothrips usitatus (Bagrall) (thrips)", "assay": "Median lethal concentration fumigation test, thrips", "conditions": "adult thrips, exposed one hour, mortality observed in 24 hours", "text": "(§7) Median Lethal Concentration Tests. […] The species tested included Thrips (M. usitatus), spider mite (T. cinnabarinus), melon fly (B. cucuribitae), cockroach (B. lateralis), housefly (M. domestica), mosquito (A. aegypti), parasitic wasp (T. chilonis) and fruit fly (Drosophila melanogaster). After being exposed to the test chemicals for one hour, adult Thrips, spider mites, and roaches were transferred to another flask. In addition to fresh water, adult Thrips, spider mites, and roaches were then respectively fed with cowpea, fresh blade of eggplant, and peanut oil via filter. […] Mortality of melon fly was observed after three hours of exposure."}, "[9]": {"tested_on": "T. castaneum (red flour beetle)", "assay": "Median lethal time (LT50) test, red flour beetle", "assay_type": "in vivo, Tribolium castaneum", "text": "as §5, §6"}, "[10]": {"tested_on": "Musca domestica (housefly)", "assay": "Median knockdown concentration (KC50) test, housefly", "assay_type": "in vivo", "conditions": "Musca domestica", "text": "as §5\n(§8) Knockdown Activity of Monoterpenes."}, "[11]": {"tested_on": "A. japonicus (parasitic wasp)", "assay": "Median lethal time (LT50) test, parasitic wasp (natural enemy)", "conditions": "non-target parasitic wasp", "method": "(§9) Insect Egg Parasitic Wasp (Natural Enemy). […] Both species were purchased from a commercial source. One- to two-day-old adults (after eclosion) were used for fumigation tests.\nMedian Lethal Time (LT50) and Median Knockdown Concentration (KC50) Tests. Five species of adult insects or natural enemies were tested for LT50 values including melon fly (B. cucuribitae), red flour beetle (T. castaneum), Nitidulidae beetle (H. picinus), parasitic wasp (A. japonicus) and housefly (M. domestica). For each treatment and control, 20 insects at the developmental stages described above were placed individually without food in a 1-L wide-mouth glass bottle (height 19.5 cm, bottom diameter 10.5 cm, mouth i.d. 5.5 cm) containing pieces of tissue paper. […] Five different concentrations of the test chemicals were placed on pieces of cellulose-based qualitative filter paper. Each of the filter papers was placed in a bottle to have 5 appropriate concentrations in serial dilutions. DDVP was the positive control, and no chemical treatments were the negative control. All treatments and controls were in triplicate. Mortality was observed periodically in a 10-30 minute interval for 2 days or until all insects died. The death was defined as no movement when the insects were touched."}, "[12]": {"tested_on": "T. chilonis (parasitic wasp)", "conditions": "non-target parasitic wasp, mortality after 15 minutes of exposure", "text": "as §9, §7"}, "Aedes aegypti (mosquito)": {"tested_on": "Aedes aegypti (mosquito)", "assay": "Median knockdown concentration (KC50) test, mosquito", "assay_type": "in vivo", "conditions": "30 Minutes", "text": "as §5, §8"}, "[13]": {"tested_on": "Aedes aegypti (Linnaeus) (mosquito)", "conditions": "adult mosquito, exposed 30 minutes, mortality in 24 hours", "text": "as §7"}, "[14]": {"tested_on": "Blatta lateralis (Walker) (cockroach)", "conditions": "cockroach second instar nymphs, exposed one hour", "text": "as §7"}, "[15]": {"tested_on": "Bactrocera cucuribitae (Coquillett) (melon fly)", "conditions": "melon fly", "text": "as §7"}, "[16]": {"tested_on": "Tetranychus cinnabarinus (Boisduval) (spider mites)", "conditions": "spider mites, exposed one hour", "text": "as §7"}, "[17]": {"tested_on": "Musca domestica (Linnaeus) (housefly)", "conditions": "adult housefly, exposed one hour, mortality in 24 hours", "text": "as §7"}, "[18]": {"tested_on": "Megalurothrips usitatus (flower Thrips)", "conditions": "adult M. usitatus, 24 hours of fumigation in 1-L flasks"}, "housefly adults": {"tested_on": "housefly adults", "conditions": "cited from earlier work"}},
  "data": [
    {"smiles": "CC12CCC(CC1)C(C)(C)O2", "note": "[1,8-Cineole]", "values": [
      {"measurement": "Vp (Pa)/T (° C.)", "setting": "[1]", "value": "253.31/25 Pa"},
      {"measurement": "LC50, fumigation toxicity", "setting": "adult T. palmi", "value": 16700, "unit": "ng/mL"}
    ]},
    {"smiles": "C/C=C/c1ccc(OC)cc1", "note": "[Anethole, 1-(4-methoxyphenyl) -1-propen]", "values": [
      {"measurement": "Kd", "setting": "[2]", "value": 4.49, "unit": "µM"},
      {"measurement": "Kd", "setting": "[3]", "value": 1.61, "unit": "µM"},
      {"measurement": "Kd value, ITC", "setting": "rGABARAP^Y174A [4]", "value": "No binding"},
      {"measurement": "Kd", "setting": "rGABARAP^Y174A [5]; read-out: Kd value, MST", "value": "41 ± 36.4", "unit": "µM"}
    ]},
    {"smiles": "COP(=O)(OC)OC=C(Cl)Cl", "note": "[DDVP 80%, 2,2-Dichlorovinyl dimethyl phosphate, reference compound]", "values": [
      {"measurement": "LC90 (fiducial limits)", "setting": "[6]", "value": 0.002, "unit": "ng/mL"},
      {"measurement": "LT50 (fiducial limits)", "setting": "[7]", "value": 0.89, "unit": "h"},
      {"measurement": "LC90 (fiducial limits)", "setting": "[8]", "value": 1850, "unit": "ng/mL"},
      {"measurement": "LT50 (fiducial limits)", "setting": "[9]", "value": 2.70, "unit": "h"},
      {"measurement": "KC50 (fiducial limits)", "setting": "[10]; 20 Minutes", "value": ">2.7", "unit": "µg/mL"},
      {"measurement": "KC50 (fiducial limits)", "setting": "[10]; 30 Minutes", "value": ">2.7", "unit": "µg/mL"},
      {"measurement": "LT50 (fiducial limits) against A. japonicus", "setting": "[11]", "value": "0.41 (0.07-0.49) hour"},
      {"measurement": "LC90 (fiducial limits) against T. chilonis", "setting": "[12]", "value": ">3750", "unit": "ng/mL"},
      {"measurement": "KC50 (fiducial limits)", "setting": "Aedes aegypti (mosquito)", "value": ">0.081", "unit": "µg/mL"},
      {"measurement": "LC90 (fiducial limits)", "setting": "[13]", "value": 2.8, "unit": "ng/mL"},
      {"measurement": "LC90 (fiducial limits)", "setting": "[14]", "value": 9510, "unit": "ng/mL"},
      {"measurement": "LC90 (fiducial limits)", "setting": "[15]", "value": 1.4, "unit": "ng/mL"},
      {"measurement": "LC90 (fiducial limits)", "setting": "[16]", "value": 800, "unit": "ng/mL"},
      {"measurement": "LC90 (fiducial limits)", "setting": "[17]", "value": 530, "unit": "ng/mL"}
    ]},
    {"smiles": "C=CCc1ccc(OC)c(OC)c1", "note": "[Eugenol methyl ether, 1-(3,4-dimethoxyphenyl) -2-propene]", "values": [
      {"measurement": "activity against flower Thrips in preliminary screening", "setting": "[18]", "value": "exhibit insecticidal activity"},
      {"measurement": "Kd", "setting": "[2]", "value": 4.22, "unit": "µM"},
      {"measurement": "Kd", "setting": "[3]", "value": 1.3, "unit": "µM"},
      {"measurement": "Kd value, ITC", "setting": "rGABARAP^Y174A [4]", "value": "neither MBP nor ME interacted"},
      {"measurement": "Kd value, MST", "setting": "rGABARAP^Y174A [5]", "value": "loss of binding"}
    ]},
    {"smiles": "CC1CCC(C(C)C)C(O)C1", "note": "(stereo not drawn) [menthol]", "values": [
      {"measurement": "repellent activity", "setting": "housefly adults", "value": 96, "unit": "%"}
    ]},
    {"smiles": "CC(C)[C@@H]1CC[C@@H](C)CC1=O", "note": "[menthone]", "values": [
      {"measurement": "repellent activity", "setting": "housefly adults", "value": 83, "unit": "%"}
    ]}
  ]
}
